In paper PMC4739419, “Mutations in the nucleotide binding and hydrolysis domains of Helicobacter pylori MutS2 lead to altered biochemical activities and inactivation of its in vivo function” (BMC Microbiology, 2016):

B1: ssDNA 63-mer (ODN4) (ssDNA)
DNA: ATCGATAGTCGGATCCTCCAGACAGCTCCATGTAGCAAGGCACTGGTAGAATTCGGCAGCGTC

What was measured:
HpMutS2 [1] = target: T1, HpMutS2 (Helicobacter pylori, UniProt O25338); assay: Tryptophan fluorescence-quenching nucleotide binding assay; settings: for Kd: no divalent metal ions, protein 1 μM, 25 °C, read-out: Kd (dissociation constant)
T1 construct: (A) HpMutS2 (1-762): Mol. wt; (kDa): 87.8; His6 (C); made in house; host or cells: E. coli Rosetta (DE3) pLysS
Description: (§1) Next, the ATP hydrolysing abilities of HpMutS2-G338R and HpMutS2-E413A were tested and compared to that of wild-type HpMutS2. […] Therefore, to determine the nucleotide binding efficiencies of HpMutS2, HpMutS2-G338R, and HpMutS2-E413A, intrinsic fluorescence properties of these proteins were exploited. HpMutS2 has two tryptophan residues at positions 551 and 644. A fluorescence-quenching assay was used to determine the ATP and ADP binding affinities of HpMutS2 and its mutants. Quenching of the Trp fluorescence was recorded upon titration with ATP and ADP in absence of any divalent metal ions. Saturation isotherms generated from the changes in the fluorescence emission spectra of HpMutS2, HpMutS2-G338R, and HpMutS2-E413A were used to calculate the dissociation constants for ATP and ADP (Figs. 2a, b and c respectively).
(§2) Fig. 2 Nucleotide binding affinities of a HpMutS2 b HpMutS2-G338R and c HpMutS2-E413A. Tryptophan fluorescence assays described in the Methods section were used to determine the nucleotide binding affinities of proteins.
(§3) Fluorescence spectroscopy analysis of HpMutS2 was carried out based on the intrinsic fluorescent signal of tryptophan. The proteins were dialyzed in buffer B (50 mM Tris pH 8.0 and 100 mM NaCl) for 4–6 h with at least two changes of the buffer. Fluorescence intensities were measured on a Shimadzu, RF 5000 spectrofluorimeter using a 1-cm stirred quartz cuvette at 25 °C. The emission spectra were recorded over a wavelength of 300–400 nm with an excitation wavelength of 280 nm. To measure the dissociation constants for ATP and ADP, small aliquots of cofactor were added to proteins (1 μM), and spectra were recorded. Each spectra recorded was an average of three scans. The maximum fluorescence intensities observed at around 340 nm were selected for calculating the difference in intrinsic fluorescence of protein alone and in the presence of ligand. Control titrations were conducted and all the fluorescence emission spectra were corrected by subtracting control spectra. The dissociation constants were calculated graphically using a plot of ΔF/ΔFmax versus ligand concentration. ΔF is the magnitude of the difference between the observed fluorescence intensity at a given concentration of ligand and the fluorescence intensity in the absence of ligand and ΔFmax is the difference at saturating concentration of ligand.

HpMutS2-E413A [2] = target: T2, HpMutS2-E413A (Helicobacter pylori, UniProt O25338, E413A); assay: as above; settings: no divalent metal ions, protein 1 μM, 25 °C; read-out: Kd (dissociation constant)
T2 construct: (A) HpMutS2-E413A (1-762): Mol. wt; (kDa): 87.7; His6 (C); made in house; host or cells: E. coli Rosetta (DE3) pLysS
T2 sequence (O25338 1-762 E413A): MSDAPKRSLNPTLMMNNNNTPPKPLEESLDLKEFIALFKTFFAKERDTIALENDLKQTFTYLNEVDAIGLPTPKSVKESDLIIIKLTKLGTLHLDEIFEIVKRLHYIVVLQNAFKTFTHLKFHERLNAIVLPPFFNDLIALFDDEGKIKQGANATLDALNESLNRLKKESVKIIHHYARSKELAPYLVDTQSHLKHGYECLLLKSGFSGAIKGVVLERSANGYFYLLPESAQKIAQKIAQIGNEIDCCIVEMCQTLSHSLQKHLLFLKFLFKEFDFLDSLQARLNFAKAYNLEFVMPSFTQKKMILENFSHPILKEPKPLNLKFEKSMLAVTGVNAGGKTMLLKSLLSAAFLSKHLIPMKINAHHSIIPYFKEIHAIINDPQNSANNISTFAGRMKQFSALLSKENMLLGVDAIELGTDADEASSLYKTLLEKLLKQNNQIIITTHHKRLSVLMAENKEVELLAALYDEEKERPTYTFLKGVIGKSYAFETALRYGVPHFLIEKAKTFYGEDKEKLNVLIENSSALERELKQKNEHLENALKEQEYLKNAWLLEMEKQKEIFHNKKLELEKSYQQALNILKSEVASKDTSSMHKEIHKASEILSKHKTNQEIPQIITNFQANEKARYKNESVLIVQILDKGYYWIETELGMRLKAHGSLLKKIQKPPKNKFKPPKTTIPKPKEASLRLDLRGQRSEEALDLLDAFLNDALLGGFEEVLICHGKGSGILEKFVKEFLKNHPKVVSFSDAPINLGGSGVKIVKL
Description: as §1, §2, §3

HpMutS2-G338R [3] = target: T3, HpMutS2-G338R (Helicobacter pylori, UniProt O25338, G338R); assay: as above; settings: no divalent metal ions, protein 1 μM, 25 °C; read-out: Kd (dissociation constant)
T3 construct: (A) HpMutS2-G338R (1-762): Mol. wt; (kDa): 87.9; His6 (C); made in house; host or cells: E. coli Rosetta (DE3) pLysS
T3 sequence (O25338 1-762 G338R): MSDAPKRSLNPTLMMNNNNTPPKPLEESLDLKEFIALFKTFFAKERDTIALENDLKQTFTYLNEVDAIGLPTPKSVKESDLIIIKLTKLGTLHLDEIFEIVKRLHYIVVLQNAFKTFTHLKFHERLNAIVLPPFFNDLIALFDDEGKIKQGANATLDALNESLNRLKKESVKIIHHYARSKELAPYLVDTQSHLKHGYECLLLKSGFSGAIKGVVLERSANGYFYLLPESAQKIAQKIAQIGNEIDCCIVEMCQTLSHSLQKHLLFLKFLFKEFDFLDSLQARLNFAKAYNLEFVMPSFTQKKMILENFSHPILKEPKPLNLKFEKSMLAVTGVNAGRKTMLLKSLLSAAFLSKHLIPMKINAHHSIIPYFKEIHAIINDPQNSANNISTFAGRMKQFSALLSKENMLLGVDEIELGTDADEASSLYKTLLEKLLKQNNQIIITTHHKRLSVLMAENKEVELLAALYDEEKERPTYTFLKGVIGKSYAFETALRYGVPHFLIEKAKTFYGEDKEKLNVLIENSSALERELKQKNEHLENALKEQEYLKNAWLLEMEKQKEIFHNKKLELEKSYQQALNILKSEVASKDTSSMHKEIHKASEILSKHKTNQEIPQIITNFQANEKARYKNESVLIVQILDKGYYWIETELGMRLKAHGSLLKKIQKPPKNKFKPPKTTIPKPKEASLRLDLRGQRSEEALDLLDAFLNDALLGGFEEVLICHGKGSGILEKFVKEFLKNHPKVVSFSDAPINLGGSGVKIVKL
Description: as §1, §2, §3

ssDNA-HpMutS2 complex = target: T4, ssDNA-HpMutS2 complex (Helicobacter pylori, UniProt O25338); assay: Chase experiment on preformed nucleoprotein complex; type: binding; settings: highest concentration of ATP used (0.25–5 mM)
T4 construct: (A) HpMutS2 (1-762): Mol. wt; (kDa): 87.8; His6 (C); made in house; host or cells: E. coli Rosetta (DE3) pLysS
T4 sequence (O25338 1-762): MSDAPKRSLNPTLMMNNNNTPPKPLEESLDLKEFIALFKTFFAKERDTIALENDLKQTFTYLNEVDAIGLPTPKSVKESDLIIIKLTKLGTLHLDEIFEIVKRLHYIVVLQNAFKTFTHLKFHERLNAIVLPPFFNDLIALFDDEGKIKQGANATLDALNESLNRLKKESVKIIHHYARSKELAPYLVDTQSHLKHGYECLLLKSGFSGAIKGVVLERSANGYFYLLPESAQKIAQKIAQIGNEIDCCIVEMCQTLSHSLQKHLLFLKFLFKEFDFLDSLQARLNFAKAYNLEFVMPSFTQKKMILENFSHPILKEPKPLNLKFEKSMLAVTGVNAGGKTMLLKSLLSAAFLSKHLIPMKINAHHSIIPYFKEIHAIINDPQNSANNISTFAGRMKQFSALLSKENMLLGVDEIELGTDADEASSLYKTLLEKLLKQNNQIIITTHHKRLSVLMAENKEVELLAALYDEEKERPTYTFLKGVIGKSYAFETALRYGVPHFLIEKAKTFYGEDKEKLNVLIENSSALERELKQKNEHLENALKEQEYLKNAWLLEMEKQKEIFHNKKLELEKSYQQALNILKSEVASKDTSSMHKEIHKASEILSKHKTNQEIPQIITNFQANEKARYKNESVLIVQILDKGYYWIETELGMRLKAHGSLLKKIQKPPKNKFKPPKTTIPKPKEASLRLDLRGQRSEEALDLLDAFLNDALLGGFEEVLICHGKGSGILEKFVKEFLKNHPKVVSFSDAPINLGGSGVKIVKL

HpMutS2-G338R [4] = target: T5, HpMutS2-G338R (Helicobacter pylori 26695, UniProt O25338 1-762, G338R); assay: EMSA; 1 mM ADP; EMSA: 0.16 nM DNA, buffer A (50 mM Tris pH 8.0, 50 mM NaCl, 1 mM DTT per Fig. S3 legend) with 0.1 ug/ul BSA, NaCl 110 mM, no divalent metal stated, 30 min on ice, 8% native PAGE at 4 C; nucleotides 1 mM; Hill-slope fit; settings: protein: recombinant; tags: C-terminal His6; chain copies: 4; label: 5'-32P
HpMutS2 [5] = target: T6, HpMutS2 (Helicobacter pylori 26695, UniProt O25338 1-762); assay: as above; settings: protein: recombinant; tags: C-terminal His6; chain copies: 4; label: 5'-32P
T6 sequence: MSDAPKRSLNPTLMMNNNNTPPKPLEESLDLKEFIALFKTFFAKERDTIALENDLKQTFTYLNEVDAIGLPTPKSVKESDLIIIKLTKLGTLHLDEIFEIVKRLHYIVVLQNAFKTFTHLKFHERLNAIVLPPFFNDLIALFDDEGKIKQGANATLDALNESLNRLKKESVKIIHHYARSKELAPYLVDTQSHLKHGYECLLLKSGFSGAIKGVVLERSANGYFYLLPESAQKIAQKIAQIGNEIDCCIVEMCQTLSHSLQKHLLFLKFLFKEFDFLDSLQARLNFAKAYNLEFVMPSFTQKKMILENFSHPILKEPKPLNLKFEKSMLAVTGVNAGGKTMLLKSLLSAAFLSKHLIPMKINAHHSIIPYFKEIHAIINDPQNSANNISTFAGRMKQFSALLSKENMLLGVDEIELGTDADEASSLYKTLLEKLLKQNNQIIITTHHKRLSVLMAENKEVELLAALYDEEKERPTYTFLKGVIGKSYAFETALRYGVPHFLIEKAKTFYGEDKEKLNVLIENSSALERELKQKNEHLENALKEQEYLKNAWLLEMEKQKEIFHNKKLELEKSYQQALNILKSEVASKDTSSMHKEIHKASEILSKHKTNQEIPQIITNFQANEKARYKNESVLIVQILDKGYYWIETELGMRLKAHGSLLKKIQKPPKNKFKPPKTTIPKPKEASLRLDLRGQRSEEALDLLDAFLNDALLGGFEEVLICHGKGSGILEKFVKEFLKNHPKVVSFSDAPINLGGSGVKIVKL

HpMutS2-G338R [6] = target: T5, HpMutS2-G338R; assay: EMSA; 1 mM ATP; EMSA: 0.16 nM DNA, buffer A (50 mM Tris pH 8.0, 50 mM NaCl, 1 mM DTT per Fig. S3 legend) with 0.1 ug/ul BSA, NaCl 110 mM, no divalent metal stated, 30 min on ice, 8% native PAGE at 4 C; nucleotides 1 mM; Hill-slope fit; settings: protein: recombinant; tags: C-terminal His6; chain copies: 4; label: 5'-32P
HpMutS2 [7] = target: T6, HpMutS2; assay: EMSA; 1 mM ATPgS; EMSA: 0.16 nM DNA, buffer A (50 mM Tris pH 8.0, 50 mM NaCl, 1 mM DTT per Fig. S3 legend) with 0.1 ug/ul BSA, NaCl 110 mM, no divalent metal stated, 30 min on ice, 8% native PAGE at 4 C; nucleotides 1 mM; Hill-slope fit; settings: protein: recombinant; tags: C-terminal His6; chain copies: 4; label: 5'-32P
HpMutS2-G338R [8] = target: T5, HpMutS2-G338R; assay: EMSA; no nucleotide; EMSA: 0.16 nM DNA, buffer A (50 mM Tris pH 8.0, 50 mM NaCl, 1 mM DTT per Fig. S3 legend) with 0.1 ug/ul BSA, NaCl 110 mM, no divalent metal stated, 30 min on ice, 8% native PAGE at 4 C; nucleotides 1 mM; Hill-slope fit; settings: protein: recombinant; tags: C-terminal His6; chain copies: 4; label: 5'-32P
HpMutS2 [9] = target: T6, HpMutS2; assay: as above; settings: protein: recombinant; tags: C-terminal His6; chain copies: 4; label: 5'-32P
HpMutS2-E413A [10] = target: HpMutS2-E413A (Helicobacter pylori 26695, UniProt O25338 1-762, E413A); assay: EMSA; no nucleotide; no plateau, value not accurate; EMSA: 0.16 nM DNA, buffer A (50 mM Tris pH 8.0, 50 mM NaCl, 1 mM DTT per Fig. S3 legend) with 0.1 ug/ul BSA, NaCl 110 mM, no divalent metal stated, 30 min on ice, 8% native PAGE at 4 C; nucleotides 1 mM; Hill-slope fit; settings: protein: recombinant; tags: C-terminal His6; chain copies: 4; label: 5'-32P

Row | Molecule | Kd (HpMutS2 [1]) | Kd (HpMutS2-E413A [2]) | Kd (HpMutS2-G338R [3]) | Kd value, fold less than Km value (HpMutS2 [1]; wild-type HpMutS2) | dissociation of ssDNA from preformed complex (ssDNA-HpMutS2 complex) | Kd (HpMutS2-G338R [4]) | Kd (HpMutS2 [5]) | Kd (HpMutS2-G338R [6]) | Kd (HpMutS2 [7]) | Kd (HpMutS2-G338R [8]) | Kd (HpMutS2 [9]) | Kd (HpMutS2-E413A [10])
1 | Nc1ncnc2c1ncn2[C@@H]1O[C@H](COP(=O)(O)OP(=O)(O)O)[C@@H](O)[C@H]1O [ADP] | 149000 ± 31800 nM | 239000 ± 82900 nM | 318000 ± 68500 nM |  |  |  |  |  |  |  |  | 
2 | Nc1ncnc2c1ncn2[C@@H]1O[C@H](COP(=O)(O)OP(=O)(O)OP(=O)(O)O)[C@@H](O)[C@H]1O [ATP] | 167000 ± 24300 nM | 220000 ± 54200 nM | 409000 ± 70400 nM | ~ 2.4 fold | ~ 20% |  |  |  |  |  |  | 
3 | B1 |  |  |  |  |  | 23.9 ± 2.91 nM | 17.3 ± 2.89 nM | 30.7 ± 3.43 nM | 11.4 ± 0.19 nM | 32.4 ± 3.32 nM | 21.5 ± 2.28 nM | ~73.8 nM
